How the values were obtained:
yeast DNA [1] = test: Photobinding to yeast DNA in vivo (radiolabelled drug plus 365 nm light); format: binding, Saccharomyces cerevisiae
Procedure: (§1) The radioactivity of an aliquot (0.1 ml) of this solution was measured in 5 ml of scintillation mixture (Nuclear Entreprise, Ltd., Edinburgh, Scotland, NE 250).
(§2) For the in vivo determinations stationary phase cells of the haploid wild type strain N 123 were prepared as previously described.
(§3) 2 ml cell suspensions were exposed to several doses of 365 nm light. In parallel, non irradiated samples were incubated for the same periods. Immediately after incubation and/or irradiation, the samples were centrifuged and the pellet was washed 3 times with 5 ml of saline (0.9% NaCl). The washed cell pellet was resuspended in 1 ml of saline and 1 ml of 2 N NaOH was added in order to hydrolyze the RNA. The suspension was incubated overnight in the dark at room temperature, then cooled down on ice, and 2 ml of 50% TCA were added slowly. The samples were left 20 minutes on ice and the precipitated DNA was filtered on a glass fiber filter disc (Whatman GF/A, 2.1 cm diameter). In some cases the filtrate containing the acid-soluble material was kept aside, and the radioactivity of an aliquot added to 5 ml of NE250 scintillation mixture measured. The precipitate was washed 3 times with 5 ml of 5% cold TCA and 5 ml of 70% ethanol. The filters were then dried and the radioactivity measured in plastic counting vials containing 5 ml of scintillation mixture (NE 250) in a Tricarb Packard scintillation spectrophotometer.

yeast RNA = test: Photobinding to yeast RNA in vivo (radiolabelled drug plus 365 nm light); format: binding, Saccharomyces cerevisiae; details: for cpm for 10^8 cells: RNA; for Molecules 8-MOP/μg DNA / μg 8-MOP/μg DNA: binding to RNA
Procedure: as §1, §2, §3

calf thymus DNA = test: Photobinding to native calf thymus DNA in vitro; format: binding
Procedure: These determinations were done in vitro and in vivo. […] The thickness of the irradiated sample was 1 mm. After irradiation, the solution was diluted by a factor of 2, and NaCl was added to a final concentration of 1 M. The DNA was precipitated with 2 volumes of cold pure ethanol. The samples were left overnight in the cold at -20° C. The precipitate was then washed by centrifugation three times with 3 ml of 70% ethanol and redissolved in 3 ml of water. The DNA recovery was checked by determination of the optical density of the solution at 260 nm.

yeast DNA [2] = test: Melting and reassociation (cross-link formation) of yeast DNA treated in vitro plus 365 nm light; format: biochemical
Procedure: Measurement of the melting and reassociation characteristics of yeast DNA:
Biophys. […] The fractions containing the nuclear DNA were pooled and dialysed against a 0.1 M, pH 7 phosphate buffer. […] Unirradiated samples of DNA with or without the drugs were taken as references.
The cross-links formation of the two furocoumarins with native yeast DNA was tested by measuring the denaturation and renaturation pattern.

Saccharomyces cerevisiae [3] = tested on: Saccharomyces cerevisiae
Procedure: (§4) A wild-type strain 211-1aM (29) of Saccharomyces cerivisiae was used, and the following mutants derived from it: S24-12c rad2-20 deficient in excision repair and S25-13b rad9-4 likely to be blocked in a recombinational repair pathway; a double mutant S 2057NL-24 rad2-20 -rad9-4 clone B was obtained by tetrad analysis of a heterozygote [formula]
(§5) The media and culture conditions used were as described in D. Averbeck, E. Moustacchi, (1975) Biochim. Biophys. Acta, 395, 393-404.
(§6) 10^6 cells/ml in saline (0.9% NaCl) were treated for 30 minutes with the drugs at a final concentration of 10 μg/ml and 1.2% ethanol present.
(§7) A Philips HPW 125 culot Edison high pressure mercury lamp was used with maximal output at the wavelength 365 nm. The irradiation dose measured by actinometry was 10 J/m^2 per sec., using the following set up: 10 ml of actinometer solution (or the cell suspension, usually 1×10^6 cells/ml), stirred continuously by a magnetic stirrer, were irradiated at room temperature in an open Petri dish of 10 cm diameter at a distance of 10 cm from the center of the light bulb which was mounted horizontally. A 2 mm thick pyrex glass sheet (20×25 cm) was placed in the center of the light beam to cut out UV light of wavelength below 340 nm. Overheating was prevented either by a continuous flow of compressed air between the light bulb and the glass or by a pyrex glass water filter of 3 cm total thickness. An accumulative irradiation dose was given to the same sample. After each dose 0.1 ml of irradiated cell suspension was taken, diluted and aliquots plated.

Saccharomyces cerevisiae [4] = test: Induction of cytoplasmic "petite" mutations in yeast; details: compared at the same survival level (10%)
Procedure: as §4, §5, §6
as §7, with “Overheating was prevented either by a continuous flow of compressed air between the light bulb and the glass or by a pyrex glass water filter of 3 cm total thickness. An accumulative irradiation dose was given to the same sample. After each dose 0.1 ml of irradiated cell suspension was taken, diluted and aliquots plated.” left out

Saccharomyces cerevisiae [5] = test: Repair of photoinduced lesions in yeast (repair mutants, agar holding); format: cell-based
Description: Biophys. Acta, 395, 393-404.
Consequently, it appears that the excision repair pathway in wild type and rad9-4 cells is essential in AHR for both compounds.

[6] = 8-MOP, 15 min, 18.9 × 10^4 ergs.mm^-2 365 nm
[7] = 8-MOP, 30 min, 37.8 × 10^4 ergs.mm^-2 365 nm
[8] = 8-MOP, 60 min, 75.6 × 10^4 ergs.mm^-2 365 nm
[9] = 8-MOP, 90 min, 113.4 × 10^4 ergs.mm^-2 365 nm
[10] = 8-MOP, 120 min, 151.2 × 10^4 ergs.mm^-2 365 nm
[11] = 15 min, 18.9 × 10^4 ergs.mm^-2 365 nm
[12] = 30 min, 37.8 × 10^4 ergs.mm^-2 365 nm
[13] = 60 min, 75.6 × 10^4 ergs.mm^-2 365 nm
[14] = 90 min, 113.4 × 10^4 ergs.mm^-2 365 nm
[15] = 120 min, 151.2 × 10^4 ergs.mm^-2 365 nm
[16] = equimolar concentration to 3-CPs
[17] = 7.5 × 10^-5, 30 min, 37.8 erg. cm^-2 365 nm (so in the source)
[18] = 7.5 × 10^-5, 60 min, 75.6 erg. cm^-2 365 nm (so in the source)
[19] = 7.5 × 10^-5, 90 min, 113.4 erg. cm^-2 365 nm (so in the source)
[20] = 7.5 × 10^-5, 120 min, 151.2 erg. cm^-2 365 nm (so in the source)
[21] = 7.5 × 10^-5, 180 min, 226.8 erg. cm^-2 365 nm (so in the source)

COc1c2occc2cc2ccc(=O)oc12 [Example 8-MOP, 8-methoxypsoralen, reference compound]
cpm for 10^8 cells (yeast DNA [1]; [6]): 1161 cpm for 10^8 cells
cpm for 10^8 cells (yeast DNA [1]; [7]): 1474 cpm for 10^8 cells
cpm for 10^8 cells (yeast DNA [1]; [8]): 2805 cpm for 10^8 cells
cpm for 10^8 cells (yeast DNA [1]; [9]): 5582 cpm for 10^8 cells
cpm for 10^8 cells (yeast DNA [1]; [10]): 5572 cpm for 10^8 cells
Molecules 8-MOP/μg DNA (yeast DNA [1]; 15-120 min, no 365 nm light): 0.034 Molecules 8-MOP/μg DNA × 10^14
cpm for 10^8 cells (yeast DNA [1]; 15-120 min, no 365 nm light): 404.75 cpm for 10^8 cells
μg 8-MOP/μg DNA (yeast DNA [1]; 15-120 min, no 365 nm light): 0.126 μg 8-MOP/μg DNA × 10^-2
molecules linked to DNA per cell (yeast DNA [1]; 18.9×10^3 J/m^2, 5×10^-5 M): 0.5×10^6 molecules per cell
binding to DNA in vivo compared with in vitro (yeast DNA [1]; 365 nm light): much higher in the in vivo condition than in vitro
Molecules 8-MOP/μg DNA (yeast DNA [1]; [11]): 0.10 Molecules 8-MOP/μg DNA × 10^14
μg 8-MOP/μg DNA (yeast DNA [1]; [11]): 0.36 μg 8-MOP/μg DNA × 10^-2
Molecules 8-MOP/μg DNA (yeast DNA [1]; [12]): 0.13 Molecules 8-MOP/μg DNA × 10^14
μg 8-MOP/μg DNA (yeast DNA [1]; [12]): 0.46 μg 8-MOP/μg DNA × 10^-2
Molecules 8-MOP/μg DNA (yeast DNA [1]; [13]): 0.24 Molecules 8-MOP/μg DNA × 10^14
μg 8-MOP/μg DNA (yeast DNA [1]; [13]): 0.86 μg 8-MOP/μg DNA × 10^-2
Molecules 8-MOP/μg DNA (yeast DNA [1]; [14]): 0.48 Molecules 8-MOP/μg DNA × 10^14
μg 8-MOP/μg DNA (yeast DNA [1]; [14]): 1.72 μg 8-MOP/μg DNA × 10^-2
Molecules 8-MOP/μg DNA (yeast DNA [1]; [15]): 0.48 Molecules 8-MOP/μg DNA × 10^14
μg 8-MOP/μg DNA (yeast DNA [1]; [15]): 1.72 μg 8-MOP/μg DNA × 10^-2
light dose dependence of binding with DNA (yeast DNA [1]; [16]): increases linearly in the range of light doses used
photoaffinity for RNA (yeast RNA): relatively low photoaffinity for RNA
cpm for 10^8 cells (yeast RNA; [6]): 7400 cpm for 10^8 cells
cpm for 10^8 cells (yeast RNA; [7]): 12920 cpm for 10^8 cells
cpm for 10^8 cells (yeast RNA; [8]): 23580 cpm for 10^8 cells
cpm for 10^8 cells (yeast RNA; [9]): 34150 cpm for 10^8 cells
cpm for 10^8 cells (yeast RNA; [10]): 44060 cpm for 10^8 cells
cpm for 10^8 cells (yeast RNA; 15-120 min, no 365 nm light): 3805 cpm for 10^8 cells
Molecules 8-MOP/μg DNA (yeast RNA; 15-120 min, no 365 nm light): 0.033 Molecules 8-MOP/μg DNA × 10^14
μg 8-MOP/μg DNA (yeast RNA; 15-120 min, no 365 nm light): 0.12 μg 8-MOP/μg DNA × 10^-2
Molecules 8-MOP/μg DNA (yeast RNA; [11]): 0.064 Molecules 8-MOP/μg DNA × 10^14
μg 8-MOP/μg DNA (yeast RNA; [11]): 0.228 μg 8-MOP/μg DNA × 10^-2
Molecules 8-MOP/μg DNA (yeast RNA; [12]): 0.11 Molecules 8-MOP/μg DNA × 10^14
μg 8-MOP/μg DNA (yeast RNA; [12]): 0.40 μg 8-MOP/μg DNA × 10^-2
Molecules 8-MOP/μg DNA (yeast RNA; [13]): 0.20 Molecules 8-MOP/μg DNA × 10^14
μg 8-MOP/μg DNA (yeast RNA; [13]): 0.73 μg 8-MOP/μg DNA × 10^-2
Molecules 8-MOP/μg DNA (yeast RNA; [14]): 0.29 Molecules 8-MOP/μg DNA × 10^14
μg 8-MOP/μg DNA (yeast RNA; [14]): 1.05 μg 8-MOP/μg DNA × 10^-2
Molecules 8-MOP/μg DNA (yeast RNA; [15]): 0.38 Molecules 8-MOP/μg DNA × 10^14
μg 8-MOP/μg DNA (yeast RNA; [15]): 1.36 μg 8-MOP/μg DNA × 10^-2
light dose dependence of binding with RNA (yeast RNA; [16]): increases linearly in the range of light doses used
μg 8-MOP/μDNA (calf thymus DNA; 7.5 × 10^-5, 0-180 min incub. (dark)): 0.031×10^-4 μg 8-MOP/μDNA
Binding yield 8-MOP molecules/nucleotide (calf thymus DNA; [17]): 1/900
μg 8-MOP/μDNA (calf thymus DNA; [17]): 7.3×10^-4 μg 8-MOP/μDNA
Binding yield 8-MOP molecules/nucleotide (calf thymus DNA; [18]): 1/532
μg 8-MOP/μDNA (calf thymus DNA; [18]): 12.4×10^-4 μg 8-MOP/μDNA
Binding yield 8-MOP molecules/nucleotide (calf thymus DNA; [19]): 1/428
μg 8-MOP/μDNA (calf thymus DNA; [19]): 15.4×10^-4 μg 8-MOP/μDNA
Binding yield 8-MOP molecules/nucleotide (calf thymus DNA; [20]): 1/386
μg 8-MOP/μDNA (calf thymus DNA; [20]): 17.1×10^-4 μg 8-MOP/μDNA
Binding yield 8-MOP molecules/nucleotide (calf thymus DNA; [21]): 1.256 molecules/nucleotide
μg 8-MOP/μDNA (calf thymus DNA; [21]): 25.8×10^-4 μg 8-MOP/μDNA
cpm/μg DNA (calf thymus DNA; 8-MOP 7.5 × 10^-5, 0-180 min incub. (dark)): 0.24 cpm/μg DNA
cpm/μg DNA (calf thymus DNA; 8-MOP 7.5 × 10^-5, 30 min, 37.8 erg. cm^-2 365 nm (so in the source)): 56.3 cpm/μg DNA
cpm/μg DNA (calf thymus DNA; 8-MOP 7.5 × 10^-5, 60 min, 75.6 erg. cm^-2 365 nm (so in the source)): 95.7 cpm/μg DNA
cpm/μg DNA (calf thymus DNA; 8-MOP 7.5 × 10^-5, 90 min, 113.4 erg. cm^-2 365 nm (so in the source)): 118.8 cpm/μg DNA
cpm/μg DNA (calf thymus DNA; 8-MOP 7.5 × 10^-5, 120 min, 151.2 erg. cm^-2 365 nm (so in the source)): 131.5 cpm/μg DNA
cpm/μg DNA (calf thymus DNA; 8-MOP 7.5 × 10^-5, 180 min, 226.8 erg. cm^-2 365 nm (so in the source)): 198.5 cpm/μg DNA
reassociation of DNA after heat denaturation (yeast DNA [2]): a fraction of the DNA is capable to renature
photosensitization of cells compared with 3-CPs or angelicin (Saccharomyces cerevisiae [3]): more photosensitized
survivors (Saccharomyces cerevisiae [3]; saline, 5 min): 10^-5
induction of cytoplasmic "petite" mutations (Saccharomyces cerevisiae [4]): less reactive
dark repair by strain defective in excision (Saccharomyces cerevisiae [5]; agar holding): unable to perform a dark repair
interaction between rad2 and rad9 repair pathways (Saccharomyces cerevisiae [5]; plus 365 nm light): additive interaction
kinetics of agar holding recovery (AHR) (Saccharomyces cerevisiae [5]; wild-type cells): same kinetics of AHR
